Data reported in patent US20180148418A1, “AMIDO-SUBSTITUTED CYCLOHEXANE DERIVATIVES” (Bayer Pharma Aktiengesellschaft, priority 2015, published 2018).

Biological target: T1, TNKS2 (Homo sapiens, UniProt Q9H2K2)
T1 construct: purchased BPS Bioscience, San Diego, USA 80572 (TNKS2 Histone Ribosylation Assay Kit)
T1 sequence (Q9H2K2 1-1166): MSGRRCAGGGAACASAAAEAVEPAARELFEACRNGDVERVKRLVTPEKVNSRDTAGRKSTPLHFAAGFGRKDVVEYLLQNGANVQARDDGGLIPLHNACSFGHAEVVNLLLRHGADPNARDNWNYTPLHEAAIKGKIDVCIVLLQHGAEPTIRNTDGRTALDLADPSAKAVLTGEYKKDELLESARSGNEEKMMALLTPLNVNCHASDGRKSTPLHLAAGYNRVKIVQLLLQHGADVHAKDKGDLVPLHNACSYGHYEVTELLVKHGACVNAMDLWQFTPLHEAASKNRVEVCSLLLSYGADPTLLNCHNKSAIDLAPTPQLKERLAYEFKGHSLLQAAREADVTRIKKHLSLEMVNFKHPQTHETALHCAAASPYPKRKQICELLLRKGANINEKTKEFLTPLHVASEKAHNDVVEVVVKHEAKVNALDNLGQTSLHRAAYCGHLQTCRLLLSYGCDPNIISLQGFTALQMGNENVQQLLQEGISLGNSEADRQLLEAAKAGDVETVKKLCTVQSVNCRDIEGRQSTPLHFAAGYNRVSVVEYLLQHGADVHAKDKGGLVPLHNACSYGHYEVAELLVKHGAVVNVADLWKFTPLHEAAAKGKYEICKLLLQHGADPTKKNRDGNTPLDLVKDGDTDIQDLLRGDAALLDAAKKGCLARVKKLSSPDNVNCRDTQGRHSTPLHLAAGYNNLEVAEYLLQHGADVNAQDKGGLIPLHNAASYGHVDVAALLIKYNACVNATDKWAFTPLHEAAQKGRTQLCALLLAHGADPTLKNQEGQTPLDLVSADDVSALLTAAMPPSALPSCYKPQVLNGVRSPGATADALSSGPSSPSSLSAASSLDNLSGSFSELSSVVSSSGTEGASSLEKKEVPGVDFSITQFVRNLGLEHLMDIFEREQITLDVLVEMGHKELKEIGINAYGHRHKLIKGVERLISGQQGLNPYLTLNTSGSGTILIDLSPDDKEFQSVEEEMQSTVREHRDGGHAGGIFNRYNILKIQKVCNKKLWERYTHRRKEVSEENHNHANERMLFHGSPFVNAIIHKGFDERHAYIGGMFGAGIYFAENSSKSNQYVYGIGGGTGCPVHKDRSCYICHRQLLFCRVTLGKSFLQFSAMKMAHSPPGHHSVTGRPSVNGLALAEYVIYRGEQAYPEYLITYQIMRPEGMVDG
Test: TNKS2 Assay B (auto-parsylation, [3H]-NAD+ SPA)
Format: biochemical
Conditions: 6 nM TNKS2, auto-parsylation, over night at room temperature

Row | SMILES | IC50 [µM]
1 | Cc1c(C(C)N(C)C)cnc2c(C(=O)N[C@H]3CC[C@H](C(=O)Nc4ccc(F)cc4Cl)CC3)cnn12 (single isomer, unassigned) [Example 56, N-{trans-4-[(2-chloro-4-fluorophenyl)carbamoyl]cyclohexyl}-6-[1-(dimethylamino)ethyl]-7-methylpyrazolo[1,5-a]pyrimidine-3-carboxamide] | 0.37
2 | CC(C)(O)CNC(=O)c1nc[nH]c1C(=O)N[C@H]1CC[C@H](C(=O)Nc2cc(N3CCOCC3)ccc2Cl)CC1 [Example 94, N^5-(trans-4-{[2-chloro-5-(morpholin-4-yl)phenyl]carbamoyl}cyclohexyl)-N^4-(2-hydroxy-2-methylpropyl)-1H-imidazole-4,5-dicarboxamide] | 1.6
3 | O=C(NC12CCC(C(=O)Nc3cnccc3Cl)(CC1)CC2)c1cnn2cccnc12 [Example 120, N-{4-[(4-chloropyridin-3-yl)carbamoyl]bicyclo[2.2.2]oct-1-yl}pyrazolo[1,5-a]pyrimidine-3-carboxamide] | 0.26
4 | O=C(N[C@H]1CC[C@H](C(=O)Nc2ccncc2Cl)CC1)c1cnc2cccnn12 [Example 103, N-{trans-4-[(3-chloropyridin-4-yl)carbamoyl]cyclohexyl}imidazo[1,2-b]pyridazine-3-carboxamide] | 0.29
5 | CNC(=O)c1nc[nH]c1C(=O)N[C@H]1CC[C@H](C(=O)Nc2cc(OC)c(OC)cc2Cl)CC1 [Example 5, N^5-{trans-4-[(2-chloro-4,5-dimethoxyphenyl)carbamoyl]cyclohexyl}-N^4-methyl-1H-imidazole-4,5-dicarboxamide] | 0.11
6 | COCc1cc(C)n2ncc(C(=O)N[C@H]3CC[C@H](C(=O)Nc4c(F)cc(F)cc4Cl)CC3)c2n1 [Example 112, N-{trans-4-[(2-chloro-4,6-difluorophenyl)carbamoyl]cyclohexyl}-5-(methoxymethyl)-7-methylpyrazolo[1,5-a]pyrimidine-3-carboxamide] | 0.068
7 | O=C(NCC1CCCO1)c1nc[nH]c1C(=O)N[C@H]1CC[C@H](C(=O)Nc2cc(F)ccc2Cl)CC1 (stereo partly drawn) [Example 129, N^5-{trans-4-[(2-chloro-5-fluorophenyl)carbamoyl]cyclohexyl}-N^4-(tetrahydrofuran-2-ylmethyl)-1H-imidazole-4,5-dicarboxamide] | 0.034
8 | O=C(NC12CCC(C(=O)Nc3c(F)cc(F)cc3Cl)(CC1)CC2)c1cnc2cccnn12 [Example 123, N-{4-[(2-chloro-4,6-difluorophenyl)carbamoyl]bicyclo[2.2.2]oct-1-yl}imidazo[1,2-b]pyridazine-3-carboxamide] | 0.48
9 | COCC(C)NC(=O)c1nc[nH]c1C(=O)N[C@H]1CC[C@H](C(=O)Nc2cnccc2Cl)CC1 (stereo partly drawn) [Example 99, N^5-{trans-4-[(4-chloropyridin-3-yl)carbamoyl]cyclohexyl}-N^4-(1-methoxypropan-2-yl)-1H-imidazole-4,5-dicarboxamide] | 0.11
10 | O=C(NCCC1CC1)c1nc[nH]c1C(=O)N[C@H]1CC[C@H](C(=O)Nc2cc(N3CCOCC3)ccc2Cl)CC1 [Example 93, N^5-(trans-4-{[2-chloro-5-(morpholin-4-yl)phenyl]carbamoyl}cyclohexyl)-N^4-(2-cyclopropylethyl)-1H-imidazole-4,5-dicarboxamide] | 1.6
11 | CNC(=O)c1nc[nH]c1C(=O)N[C@H]1CC[C@H](C(=O)Nc2cnccc2Cl)CC1 [Example 96, N^5-{trans-4-[(4-chloropyridin-3-yl)carbamoyl]cyclohexyl}-N^4-methyl-1H-imidazole-4,5-dicarboxamide] | 0.028
12 | O=C(N[C@H]1CC[C@H](C(=O)Nc2cc(F)c(F)cc2Cl)CC1)c1cnc2cccnn12 [Example 132, N-{trans-4-[(2-chloro-4,5-difluorophenyl)carbamoyl]cyclohexyl}imidazo[1,2-b]pyridazine-3-carboxamide] | 0.029
13 | O=C(NC12CCC(C(=O)Nc3ccc(F)cc3Cl)(CC1)CC2)c1cnc2cccnn12 [Example 121, N-{4-[(2-chloro-4-fluorophenyl)carbamoyl]bicyclo[2.2.2]oct-1-yl}imidazo[1,2-b]pyridazine-3-carboxamide] | 0.33
14 | CNC(=O)c1nc[nH]c1C(=O)N[C@H]1CC[C@H](C(=O)Nc2ccc(F)cc2Br)CC1 [Example 7, N^5-{trans-4-[(2-bromo-4-fluorophenyl)carbamoyl]cyclohexyl}-N^4-methyl-1H-imidazole-4,5-dicarboxamide] | 0.027
15 | Cc1cc(C)n2ncc(C(=O)NC34CCC(C(=O)Nc5c(F)cc(F)cc5Cl)(CC3)CC4)c2n1 [Example 127, N-{4-[(2-chloro-4,6-difluorophenyl)carbamoyl]bicyclo[2.2.2]oct-1-yl}-5,7-dimethylpyrazolo[1,5-a]pyrimidine-3-carboxamide] | 0.3

The next lines start with the values.

Row | IC50 [µM] | SMILES
16 | 0.2 | Cc1cc(C)n2ncc(C(=O)N[C@H]3CC[C@H](C(=O)Nc4ccncc4Cl)CC3)c2n1 [Example 102, N-{trans-4-[(3-chloropyridin-4-yl)carbamoyl]cyclohexyl}-5,7-dimethylpyrazolo[1,5-a]pyrimidine-3-carboxamide]
17 | 0.0033 | Cc1cnc2c(C(=O)N[C@H]3CC[C@@]4(CCN(c5ccc(F)cc5Cl)C4=O)CC3)cnn2c1 [Example 137, N-[(trans)-2-(2-chloro-4-fluorophenyl)-1-oxo-2-azaspiro[4.5]dec-8-yl]-6-methylpyrazolo[1,5-a]pyrimidine-3-carboxamide]
18 | 0.015 | CCOC(=O)c1cnc2c(C(=O)N[C@H]3CC[C@H](C(=O)Nc4ccc(F)cc4Cl)CC3)cnn2c1 [Example 106, ethyl 3-({trans-4-[(2-chloro-4-fluorophenyl)carbamoyl]cyclohexyl}carbamoyl)pyrazolo[1,5-a]pyrimidine-6-carboxylate]
19 | 0.038 | CN1CCN(c2ccn3ncc(C(=O)N[C@H]4CC[C@H](C(=O)Nc5ccc(F)cc5Cl)CC4)c3n2)CC1 [Example 109]
20 | 0.61 | O=C(NC12CCC(C(=O)Nc3c(F)cc(F)cc3Cl)(CC1)CC2)c1cnn2cccnc12 [Example 119, N-{4-[(2-chloro-4,6-difluorophenyl)carbamoyl]bicyclo[2.2.2]oct-1-yl}pyrazolo[1,5-a]pyrimidine-3-carboxamide]
21 | 0.057 | CCN(c1ccc(F)cc1Cl)C(=O)[C@H]1CC[C@H](NC(=O)c2cnn3cccnc23)CC1 [Example 154, N-{trans-4-[(2-chloro-4-fluorophenyl)(ethyl)carbamoyl]cyclohexyl}pyrazolo[1,5-a]pyrimidine-3-carboxamide]
22 | 0.46 | O=C(NC12CCC(C(=O)Nc3ccc(F)cc3Cl)(CC1)CC2)c1cnn2cccnc12 [Example 117, N-{4-[(2-chloro-4-fluorophenyl)carbamoyl]bicyclo[2.2.2]oct-1-yl}pyrazolo[1,5-a]pyrimidine-3-carboxamide]
23 | 0.0065 | CCNC(=O)c1[nH]cnc1C(=O)N[C@H]1CC[C@@]2(CCN(c3ccc(F)cc3Cl)C2=O)CC1 [Example 141, N^4-[(trans)-2-(2-chloro-4-fluorophenyl)-1-oxo-2-azaspiro[4.5]dec-8-yl]-N^5-ethyl-1H-imidazole-4,5-dicarboxamide]
24 | 0.0063 | O=C(NC1CC1)c1nc[nH]c1C(=O)N[C@H]1CC[C@@]2(CCN(c3ccc(F)cc3Cl)C2=O)CC1 [Example 165, N^5-[(trans)-2-(2-chloro-4-fluorophenyl)-1-oxo-2-azaspiro[4.5]dec-8-yl]-N^4-cyclopropyl-1H-imidazole-4,5-dicarboxamide]
